Experimental data from US20250361202A1, “CALPAIN INHIBITOR” (GORYO CHEMICAL, INC., priority 2022, published 2025).

Columns and labels:
[1] = biological target: T1, calpain (calpain-1) in the kit (Homo sapiens, UniProt P07384); assay: Calpain Inhibitory Activity Measurement 1 (SensorLyte 520 Calpain Activity Assay Kit, 5-FAM/QXL 520 substrate); format: biochemical; details: inhibitor 0.062 μM; 5-FAM/QXL 520 5.0 μM; 37° C., 25 minutes; compared with SNJ-1945
T1 construct: purchased AnaSpec, Inc. AS-72149
T1 sequence (P07384 1-714): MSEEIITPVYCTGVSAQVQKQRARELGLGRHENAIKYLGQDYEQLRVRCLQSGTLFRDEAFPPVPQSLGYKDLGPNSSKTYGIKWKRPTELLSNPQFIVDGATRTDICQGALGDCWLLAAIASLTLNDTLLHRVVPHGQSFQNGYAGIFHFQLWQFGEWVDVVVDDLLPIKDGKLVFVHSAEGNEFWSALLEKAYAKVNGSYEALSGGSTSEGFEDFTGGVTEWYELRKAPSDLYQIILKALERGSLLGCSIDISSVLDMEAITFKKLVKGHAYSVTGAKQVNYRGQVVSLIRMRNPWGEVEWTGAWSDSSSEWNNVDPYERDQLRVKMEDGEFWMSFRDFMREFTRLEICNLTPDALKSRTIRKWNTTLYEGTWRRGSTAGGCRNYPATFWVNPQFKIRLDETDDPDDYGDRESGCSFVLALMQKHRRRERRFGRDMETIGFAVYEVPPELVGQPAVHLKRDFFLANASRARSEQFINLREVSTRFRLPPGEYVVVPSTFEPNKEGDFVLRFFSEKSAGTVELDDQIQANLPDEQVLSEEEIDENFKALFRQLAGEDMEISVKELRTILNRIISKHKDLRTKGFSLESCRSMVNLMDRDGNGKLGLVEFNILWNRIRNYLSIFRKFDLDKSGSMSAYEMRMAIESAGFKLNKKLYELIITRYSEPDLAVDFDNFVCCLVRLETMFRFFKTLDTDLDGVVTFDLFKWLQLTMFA
T1 sequence (P04632 1-268 partner): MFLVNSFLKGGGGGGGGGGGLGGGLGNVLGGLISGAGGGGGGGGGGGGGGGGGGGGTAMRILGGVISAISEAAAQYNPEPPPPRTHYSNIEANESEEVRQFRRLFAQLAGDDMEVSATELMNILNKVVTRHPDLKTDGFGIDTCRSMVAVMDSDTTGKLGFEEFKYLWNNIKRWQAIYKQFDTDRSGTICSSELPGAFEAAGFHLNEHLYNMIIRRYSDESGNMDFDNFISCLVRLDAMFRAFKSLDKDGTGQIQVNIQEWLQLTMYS
Description: Calpain inhibitory activity was measured with SensorLyte™ 520 Calpain Activity Asay Kit (AnaSpec, Inc., AS-72149) in conformity with a method described in its assay protocol. SNJ-1945 (Medkoo Biosciences, Inc., Cat #564979), Compound 13, Compound 14, Compound 18, or Compound 19 serving as a calpain inhibitor and a calpain (calpain-1) in the kit were mixed with each other in Assay Buffer, and the mixture was incubated at 37° C. for 3 minutes. 5-FAM/QXL™ 520 serving as a calpain enzyme substrate was added to the incubated product to perform an enzyme reaction by the calpain at 37° C. for 25 minutes (the final concentration of each inhibitor was 0.062 μM, and the final concentration of 5-FAM/QXL™ 520 was 5.0 μM). In the enzyme reaction, the enzyme substrate is cleaved by the calpain to emit fluorescence. The emission fluorescence intensity of the substrate was detected with a plate reader (Infinite™ 200 PRO, TECAN) (at an excitation wavelength of 490 nm and a fluorescence wavelength of 520 nm). SNJ-1945 is a known calpain inhibitor, and has the following structure.

[2] = biological target: T2, calpain-1 from human erythrocytes (Homo sapiens, UniProt P07384); assay: Calpain Inhibitory Activity Measurement 2 (HMRG fluorescent probe, various inhibitor concentrations, IC50); format: biochemical; details: fluorescent probe 5 μM; calpain-1 6.48 μg/mL; 37° C., 30 minutes; Tris buffer pH 7.4
T2 construct: calpain-1 from human erythrocytes; purchased Merck Millipore 208713; host or cells: human erythrocytes
T2 sequence (P07384 1-714): T1 sequence (P07384 1-714)
T2 sequence (P04632 1-268 partner): T1 sequence (P04632 1-268 partner)
Description: Calpain-1 (calpain-1 from human erythrocytes, Cat. No. 208713, Merck Millipore) and a DMSO solution of a HMRG fluorescent probe for detecting calpain activity were added to each of 50 mM Tris buffers (pH: 7.4, 5 mM CaCl2), 2 mM DTE, 2 mM EGTA) containing various concentrations of SNJ-1945 or Compound 13 to perform fluorescence assays (the final concentration of the fluorescent probe was 5 μM, and the final concentration of calpain-1 was 6.48 μg/mL). […] The results are shown in FIG. 2 (concentrations shown in the figure each represent the final concentration of SNJ-1945 or Compound 13 in each assay). The following compound was used as the probe for detecting calpain activity.
An IC50 was determined on the basis of a graph produced with data analysis software “KaleidaGraph”. As a result, the IC50 of Compound 13 was 0.010 μM, and the IC50 of SNJ-1945 was 0.040 μM.

enzyme inhibitory activity on the calpain (fluorescence increase amount, FIG. 1) [1]	IC50 [2] [nM]	SMILES
comparable to that of SNJ-1945		COCCC(=O)N[C@@H](CC(C)C)C(=O)N[C@@H](Cc1ccccc1)C(=O)C(=O)NC1CC1 [Compound 19, reference compound]
stronger than that of SNJ-1945	10	COCC(=O)N[C@@H](CC(C)C)C(=O)N[C@@H](Cc1ccccc1)C(=O)C(=O)NC1CC1 [Compound 13]

More lines, now with the values behind:

SMILES	enzyme inhibitory activity on the calpain (fluorescence increase amount, FIG. 1) [1]	IC50 [2] [nM]
C#CCOCC(=O)N[C@@H](CC(C)C)C(=O)N[C@@H](Cc1ccccc1)C(=O)C(=O)NC1CC1 [Compound 18]	stronger than that of SNJ-1945	
COC(C)(C)C(=O)N[C@@H](CC(C)C)C(=O)N[C@@H](Cc1ccccc1)C(=O)C(=O)NC1CC1 [Compound 14]	stronger than that of SNJ-1945	
COCCOCCOC(=O)N[C@@H](CC(C)C)C(=O)N[C@@H](Cc1ccccc1)C(=O)C(=O)NC1CC1 [SNJ-1945, reference compound]	inhibited	40
